Usually MIC50 stands for the lowest concentration that inhibits either 50% of growth or 50% of the strains tested, depending on the study. Higher therefore signals weaker potency. What is called MIC90 is an inhibitory concentration at the 90% level, which refers to growth in some studies and to a panel of isolates in others. As a reminder, the AUC is the area under the concentration-time curve, a measure of exposure. For orientation: clearance means a measure of how efficiently the substance is removed, as volume per time. In general, half-life refers to how long it takes for the measured level to halve. A word on the Cmax: it is the maximum level reached in the sampled fluid or tissue.

Results on one compound are retold here after patent US20120208781A1, “AMINOGLYCOSIDE DOSING REGIMENS” (Achaogen, Inc., priority 2009, published 2012).

One data set relates to Enterobacter spp. (EB). Description: MIC, broth microdilution, Brooklyn hospital isolates: Enterobacter spp. Type of data set: cell-based. Particulars: Enterobacter; EB (n = 30). The protocol: In another study, the activity of Compound 1 against a collection of contemporary Gram-negative bacteria was determined. Unique patient isolates of P. aeruginosa (PA), A. baumannii (AB), K. pneumoniae (KP), E. coli (EC), and Enterobacter spp. (EB) from prior surveys at 16 Brooklyn, N.Y. hospitals were selected based on resistance patterns. The majority of isolates were fingerprinted by automated ribotyping. MICs were performed by broth microdilution. PCR was used to identify aminoglycoside-modifying enzymes (AMEs) in AB and KP and the KPC gene in Enterobacteriaceae (EN). The expression of the efflux genes mexA, C, E and X in PA, and adeB in AB was assessed by real-time RT-PCR.

Data set [1] can be described thus: Phase 1 study 15 mg/kg/day once daily for five days: pharmacokinetics. Type of data set: in vivo. Particulars: human. As to the method:
An additional randomized, double-blind, placebo-controlled study was performed to assess the safety and pharmacokinetics of Compound 1 following IV administration to healthy adult volunteers according to a high dose, short course regimen of 15 mg/kg/day of Compound 1 administered once daily for five days. Compound 1 was formulated as a sterile solution at a concentration of 50 mg/mL in 10 mL glass vials for intravenous (IV) administration (“Compound 1 Injection”). Eight healthy subjects were randomized to receive either Compound 1 Injection or placebo administered IV by 10 minute infusion daily for five days. Seven subjects received 5 doses and one received 3 doses (early withdrawal for personal reasons).

The nature of data set [2]: Prediction of human plasma levels and half-life of Compound 1 from mouse, rat and dog data (allometric scaling). Particulars: humans. As to the method:
The PK profile of Compound 1 supports use of high doses in short infusions, administered once-daily to achieve high Cmax and AUC, which are important for both efficacy and safety.
In the phase 1 clinical studies described herein, Compound 1 was administered over a short infusion time period of 10 minutes. Based upon allometric scaling of the mouse, rat and dog nonclinical data, the Cmax associated with longer infusion time periods was predicted, as summarized in Table 21. As shown, longer infusion time periods are associated with lower Cmax, resulting in a lower Cmax to AUC ratio.

The mark [3] stands for this setting: after 5 days of once-daily IV 15 mg/kg.
The mark [4] stands for this setting: plasma, after 5 days of once-daily IV 15 mg/kg.

In brackets after ≈: the same amount, converted by molar mass.

In the case of `CN[C@@H]1[C@@H](O)[C@@H](O[C@@H]2[C@@H](O)[C@H](O[C@H]3OC(CNCCO)=CC[C@H]3N)[C@@H](N)C[C@H]2NC(=O)[C@@H](O)CCN)OC[C@]1(C)O` [Compound 1, 6′-(2-Hydroxy-ethyl)-1-(4-amino-2(S)-hydroxy-butyryl)-sisomicin], in the data set on Enterobacter spp. (EB), the MIC50 came out at 1 µg/mL (≈ 1.69 µM) and the MIC90 was 4 µg/mL (≈ 6.75 µM). In addition, in data set [1] (setting [3]), the “area under the plasma concentration-time curve” value came to 239 µg·h/mL, the fluctuation index is more than 1000% and the “trough (Cmin)” value is 0.4 µg/mL. Moreover, the drug accumulation entry in data set [1] (once-daily dosing for up to 5 days) is “lack of appreciable drug accumulation”. Moreover, the area under the curve (AUC) in data set [1] (plasma, intravenous, 15 mg/kg, read-out: average AUC in humans) is approximately 240 µg·h/mL. Also, in data set [1] (setting [4]), the clearance was found to be 1.1 mL/min/kg and the half-life was approximately 180 min. Besides, in data set [1] (plasma, after 5 days of once-daily IV 15 mg/kg, read-out: peak (Cmax)), the maximum concentration (Cmax) worked out at 113 µg/mL. Moreover, the Vd in data set [1] (plasma, after 5 days of once-daily IV 15 mg/kg, read-out: steady state volume of distribution) worked out at 0.24 L/kg. In addition, the “predicted Cmax with longer infusion time periods” value in data set [2] is recorded as “lower Cmax”.
